Reference: patent US20210347662A1, “METHODS AND APPARATUS FOR CONTROLLING OR […] TIDE” (priority 2020, published 2021)

How the values were obtained:
K. brevis [1] = assay: Microscope slide droplet test of additives on living K. brevis; format: cell-based, Karenia brevis; settings: microscopy; drop of Gulf of Mexico marine water with at least hundreds of living K. brevis organisms to start; a droplet of additive solution or about 1 to 0 mg solid added
K. brevis [2] = assay: K. brevis cell count in test tubes of sea water after adding red tide inhibitors; format: cell-based, Karenia brevis; settings: 10 ml Gulf of Mexico sea water, initial count at least 1 million K. brevis cells per liter; one drop of concentrated solution or 5 mg solid; counted after two minutes
Description: Experiments were performed to determine the K. brevis count with various red tide inhibitors.
A microscope with magnification up to 2500 times, was used along with a gridded Sedgewick-Rafter counting slide to record K. brevis cell counts. Testing was performed on Gulf of Mexico sea water containing K. brevis with an initial K. brevis cell count of at least 1 million K. brevis cells per liter. Test tubes contained 10 ml. each of this sea water, to which the following salts and other chemicals were added. For a concentrated solution of the additive, one drop is added and for solid additives, 5 mg is added. The test tubes contents containing the additives were gently mixed and then counts tabulated after two minutes.
Table 1 identifies the additives tested and the resultant cell count.

Row | Molecule | Experimental Results (K. brevis [1]) | Cell Count (K. brevis [2])
1 | [Ca+2].[OH-].[OH-] [calcium hydroxide] | No living K. brevis | –
2 | CN.Cl [methylammonium chloride] | No living K. brevis | –
3 | calcium sulfate [Concentrated calcium sulfate solution] | No living K. brevis | None
4 | CN(C)c1ccc2nc3ccc(=[N+](C)C)cc-3sc2c1 [Dilute methylene blue solution, methylene blue] | No living K. brevis | Very few
5 | [Cl-].[Na+] [Concentrated salt solution, sodium chloride] | No living K. brevis | None
6 | O=S(=O)([O-])[O-].[Cu+2] [Concentrated copper sulfate solution, copper sulfate] | No living K. brevis | None
7 | [O]=[Ca] [Solid calcium oxide, calcium oxide] | – | None
8 | C[N+](C)(C)C.[Cl-] [tetamethylammonium chloride] | No living K. brevis | –
9 | O=S(=O)([O-])[O-].[Mg+2] [Concentrated magnesium sulfate solution, magnesium sulfate] | No living K. brevis | None
